Measured values reported in patent publication US20090170858A1, “Methods and Compositions Containing Natural Folates for Protecting Against Radiation Damage” (priority 2005, published 2009).
Entries after “also recorded” stand apart in the source; their conditions may differ.

Legend:
[1] = Photodegradation on UVA, UVB or visible light exposure without photosensitizer (HPLC)
Procedure: (§1) UVA and UVB irradiation were carried out under the following conditions. Samples were exposed to UV light at a distance of 30 cm from either a 15 W UVA lamp, Sylvania 350 BL, (lambda max=365 nm, 820 μW/cm2) or 15 W UVB lamp, UVP (lambda max=302 nm, 820 μW/cm2); both purchased from UVP, Inc., USA. The lamps were mounted in a UVP Model XX-15 lamp holder rested on a XX exposure stand.
(§2) To give a solution depth of about 3 mm, 0.5 ml reaction volumes were used in clear 24-well plates. To prevent evaporation during the UVA exposure, samples were covered with MICROAMP™ Optical Adhesive Film (ABI) allowing greater than 80% transmission above 330 nm. […] reactions were covered with a quartz window. All reactions were performed at ambient temperature in 10 mM potassium phosphate pH 7.41 (measured at 10 mM and 21° C.), equilibrated to air, in the presence of 100 μM diethylenetriaminepentaacetic acid in order to prevent the effect of adventitious redox-active metal ions, pre-empt the Fenton reaction and avoid hydroxyl radical-induced damage.
(§3) 5-MTHF photodegradation was assayed by HPLC using the following procedure. Samples were taken during light exposure at various times and analyzed by HPLC on a Luna phenyl-hexyl 5 μm (25×0.46 cm) column (Phenomenex) eluted at a flow rate of 1.5 ml/min with ammonium phosphate (20 mM in ammonium), pH 2.8/acetonitrile (17:1) with detection by UV absorbance using Waters 996, photodiode array spectrometer.

[2] = Procedure: as §1, §2
(§4) Reactions with photoexcited pterin-6-carboxylic acid or folic acid were carried out as follows. Samples were exposed in 24-well plates to UVA light in 0.5 ml reaction volumes containing 5-MTHF and folic acid or PCA in the absence or presence of sodium ascorbate in 10 mM potassium phosphate buffer pH 7.42. […]

[3] = Rose Bengal photosensitization reaction, depletion of 5-MTHF (HPLC)
Procedure: Photochemical reactions with Rose Bengal were carried out as follows. Samples in septum-stoppered glass cuvettes were illuminated at a distance of 12 cm by light from a 40 W tungsten lamp passed through a Wratten #16 gelatin filter. Reactions were equilibrated with air or sparged with 100% or 1.8% O2 in argon, or extensively with 100% argon, and illumination was carried out at ambient temperature. Samples were taken through the septum by syringe and injected directly into the HPLC.
as §3

[4] = Reaction with photoexcited pterin-6-carboxylic acid under UVA, depletion of 5-MTHF (HPLC)
Procedure: as §1, §2, §4

[5] = system: Supercoiled plasmid DNA, PBR 322; experiment: UVA-mediated strand breaks in plasmid DNA, agarose gel electrophoresis; conditions: for strand-breaks in supercoiled plasmid DNA on UVA exposure / effect on the plasmid in the dark: 50 μM; for strand-breaks in supercoiled plasmid DNA on UVA exposure: UVA for 80 min, FIG. 3; for effect on the plasmid in the dark: incubated 80 min in the dark
Procedure: as §1, §2
Strand breaks in DNA were detected as follows. Supercoiled plasmid DNA is converted into a nicked circular-form (relaxed) due to single-strand breaks, and subsequently into a linear form due to double-strands breaks. The three forms can be separated by agarose gel electrophoresis. Supercoiled DNA migrates further than the linear form, which in turn migrates further than the relaxed form.
A mixture of 0.1 μg of plasmid DNA, PBR 322, and folic acid, 5-MTHF or PCA in 10 mM potassium phosphate, pH 7.4, was incubated for 80 min under the above UVA-irradiation conditions for a total exposure of 4 J/cm^2. To partially maintain the concentration of 5-MTHF, a 0.25 mM solution was continuously added to the reaction mixture at 1.1 μl/min using a Harvard syringe pump with magnetic stirring.
A sample of 10 μl of the reaction mixture was then subjected to agarose gel electrophoresis after addition of 2 μl of 10× gel loading buffer. Agarose gel for electrophoresis was prepared by dissolving 0.9% agarose in 45 mM Tris-borate buffer (pH 8.3), containing 1 mM EDTA. Electrophoresis was run at 4 V/cm for 1 h. The gel was incubated with 1 μg/ml SYBR Safe stain, and the DNA bands were scanned using Fuji FLA-5000 phosphor-imaging system.

[6] = Rate of reaction with singlet oxygen in water; type: physicochemical; conditions: inferred from competition with azide
[7] = cited from earlier work
[8] = system: Rose Bengal-loaded THP-1 cells; conditions: viable Rose Bengal-loaded THP-1 cells; cited from earlier work

CN1c2c(nc(N)[nH]c2=O)NC[C@@H]1CNc1ccc(C(=O)N[C@@H](CCC(=O)[O-])C(=O)O)cc1.CN1c2c(nc(N)[nH]c2=O)NC[C@@H]1CNc1ccc(C(=O)N[C@@H](CCC(=O)[O-])C(=O)O)cc1.[Ca+2] [5-MTHF, 5-Methyl-6S-tetrahydrofolic acid calcium salt]
stability when illuminated alone ([1]; UVA, UVB or visible light, no photosensitizer, calcium salt): stable; also recorded: unaffected; also recorded: not photolyzed directly by UV
degradation (autooxidation) on exposure to UVA or UVB ([1]; in 1 hr, same extent as in the absence of light): < 5%
5-MTHF concentration that prevented photodegradation of folic acid ([2]; UV exposure): below 10 μM
folic acid maintained until 5-MTHF decayed below this concentration ([2]; photolysis of folic acid in the presence of 5-MTHF, FIG. 1): below 1 μM
depletion of 5-MTHF by visible-light sensitized Rose Bengal ([3]; 25 μM 5-MTHF, pH 7.4, Rose Bengal, SOD, FIG. 2A): depleted
effectiveness in scavenging singlet oxygen relative to azide ([3]; competition reaction, high concentrations of O2, FIG. 2B): about 20 fold
time to complete depletion of 5-MTHF ([4]; initial 25 μM 5-MTHF, 50 μM PCA, UVA exposure): ≤ 15 min
UVA mediated DNA-damage in the presence of folic acid or PCA ([5]; 50 μM folic acid or PCA, UVA 80 min, 5-MTHF added continuously, 10 μM falling to 0.25 μM, calcium salt): inhibited
cleavage of plasmid DNA induced by the compound alone under UV ([5]; 5-MTHF alone, UV): does not induce cleavage of plasmid DNA
5-MTHF concentration that prevented strand-breaks in plasmid DNA ([5]; in the presence of photoexcited PCA): below 10 μM
rate of reaction with singlet oxygen [6]: nearly diffusion limited

Nc1nc2ncc(C(=O)O)nc2c(=O)[nH]1 [PCA, pterin-6 carboxylic acid]
strand-breaks in supercoiled plasmid DNA on UVA exposure [5]: high percentage of strand-breaks
effect on the plasmid in the dark [5]: no effect

O=C1O[C@H]([C@@H](O)CO)C([O-])=C1O.[Na+] [ascorbate, sodium ascorbate]
rate of loss of 5-MTHF in Rose-Bengal induced photosensitization ([3]; mM levels of sodium ascorbate, high oxygen, FIG. 2C): decreased
maintenance of 5-MTHF throughout the reaction ([4]; 1 mM ascorbate, 25 μM 5-MTHF, 10 μM PCA, UVA): substantially maintained
rate constant for the reaction with singlet oxygen in water [7]: 8.3e+06 M⁻¹ s⁻¹
effect on the generation of protein-derived peroxides [8]: no effect

[N-]=[N+]=[N-].[Na+] [azide, Sodium azide]
decrease of the depletion rate of 5-MTHF ([3]; 0.5 mM azide, 100% O2, 10 μM Rose Bengal, FIG. 2B): about 50%
decrease of the initial rate of depletion of 5-MTHF ([3]; 5 mM azide, 100% O2, 10 μM Rose Bengal, FIG. 2B): about 80%
protection against UVA mediated DNA-damage ([5]; 10 mM sodium azide, same conditions): full protection
rate constant for the reaction with singlet oxygen in water [7]: 4.5e+08 M⁻¹ s⁻¹

Nc1nc2ncc(CNc3ccc(C(=O)N[C@@H](CCC(=O)O)C(=O)O)cc3)nc2c(=O)[nH]1 [folic acid]
photolysis products on exposure to UVA ([1]; UVA, HPLC, similar results with UVB): initially yields, p-aminobenzoylglutamate and 6-FP
strand-breaks in supercoiled plasmid DNA on UVA exposure [5]: high percentage of strand-breaks
effect on the plasmid in the dark [5]: no effect
